Consider two compounds from PubChem BioAssay (NCI).

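In this assay, cells in 96-well plates receive the compound at five concentrations for 48 hours. Endpoints are linearly interpolated between the surrounding concentrations. Definition used: TGI = concentration required for complete inhibition of growth.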

Common to all, as to assay: NCI tumour cell line growth inhibition, 48 h
Assay [1] relates to P388 leukemia.
For assay [2], the system named is SN12K1 renal.
Assay [3] deals with DMS 114 small cell lung.
For assay [4], the system named is P388/ADR leukemia.
Assay [5] has as its system MALME-3M melanoma.
Assay [6] deals with XF 498 CNS.
Assay [7] deals with DLD-1 colon.
Assay [8] relates to SW-620 colon.
Assay [9] deals with M19-MEL melanoma.
For assay [10], the system named is SK-OV-3 ovarian.
Assay [11] concerns MOLT-4 leukemia.
Assay [12] has as its system UO-31 renal.

`CC(=O)Oc1ccc(C2COc3cc(OC(C)=O)c(OC(C)=O)cc3C2)cc1` (centres undefined): the TGI in assay [1] is 37.1 µM; in [2] it was 35.9 µM; in assay [3], 17.1 µM; in [4], over 53.6 µM; in assay [5], 31 µM; in assay [6], 25.9 µM. In addition, the TGI worked out at 38 µM in assay [7]; 35.9 µM in assay [8]; 33.2 µM in assay [9]; 38.7 µM in [10]; 62 µM in assay [11]; 59.4 µM in assay [12].

Regarding `C#CCn1c(=O)c(C#N)c(O)c2cc3ccccc3nc21`, the TGI in [1], in [2], in assay [3], in assay [4], in [5] and in assay [6] was over 100 µM throughout. Moreover, the TGI in assay [7], in assay [8], in assay [9], in assay [10], in assay [11] and in assay [12] was over 100 µM throughout.
